Reference: ChEMBL document CHEMBL5036336, “Structure-Guided Optimization Provides a Series of TTK Protein Inhibitors with Potent Antitumor Activity” (J Med Chem, 2021)
Values after ≈ are worked out from the molar mass of the structure shown.

Experiments:
[1] = Kinetic solubility of compound in PBS at pH 7.4 at 200 uM incubated for 24 hrs by UPLC/MS analysis; format: physicochemical; details: read-out: Kinetic_solubility
[2] = Clearance in rat at 2 mg/kg, iv; format: ADME, organism-based; details: in vivo
[3] = target: Cytochrome P450 3A4 (Homo sapiens, UniProt P08684); assay: Inhibition of CYP3A4 in human liver microsomes using […] as substrate incubated for 5 mins in presence of NADPH by LC-MS/MS analysis; format: ADME
Chain of Cytochrome P450 3A4 (P08684 whole entry): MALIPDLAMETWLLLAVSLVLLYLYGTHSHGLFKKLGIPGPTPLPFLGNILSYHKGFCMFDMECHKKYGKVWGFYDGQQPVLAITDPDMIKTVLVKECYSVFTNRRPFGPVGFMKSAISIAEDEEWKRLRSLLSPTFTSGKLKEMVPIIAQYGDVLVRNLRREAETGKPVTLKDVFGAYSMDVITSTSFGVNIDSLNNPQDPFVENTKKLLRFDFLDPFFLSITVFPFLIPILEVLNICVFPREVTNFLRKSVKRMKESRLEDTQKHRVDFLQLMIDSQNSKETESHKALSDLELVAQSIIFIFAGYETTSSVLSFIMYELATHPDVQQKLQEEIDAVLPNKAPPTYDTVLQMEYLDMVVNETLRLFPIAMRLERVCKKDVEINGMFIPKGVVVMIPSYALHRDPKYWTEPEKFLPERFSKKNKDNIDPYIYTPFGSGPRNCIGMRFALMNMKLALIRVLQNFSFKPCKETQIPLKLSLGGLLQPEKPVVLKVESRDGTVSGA

[4] = system: CAL-51; assay: Antiproliferative activity against human CAL-51 cells assessed as inhibition of cell proliferation measured after 3 days by Cell Titer-Glo luminescence based assay; format: functional; details: CAL-51, 72 h
[5] = target: T1, Dual specificity protein kinase TTK (Homo sapiens, UniProt P33981); assay: Displacement of kinase tracer 236 from TTK (unknown origin) by LanthaScreen Eu kinase binding assay
T1 sequence (P33981 whole entry): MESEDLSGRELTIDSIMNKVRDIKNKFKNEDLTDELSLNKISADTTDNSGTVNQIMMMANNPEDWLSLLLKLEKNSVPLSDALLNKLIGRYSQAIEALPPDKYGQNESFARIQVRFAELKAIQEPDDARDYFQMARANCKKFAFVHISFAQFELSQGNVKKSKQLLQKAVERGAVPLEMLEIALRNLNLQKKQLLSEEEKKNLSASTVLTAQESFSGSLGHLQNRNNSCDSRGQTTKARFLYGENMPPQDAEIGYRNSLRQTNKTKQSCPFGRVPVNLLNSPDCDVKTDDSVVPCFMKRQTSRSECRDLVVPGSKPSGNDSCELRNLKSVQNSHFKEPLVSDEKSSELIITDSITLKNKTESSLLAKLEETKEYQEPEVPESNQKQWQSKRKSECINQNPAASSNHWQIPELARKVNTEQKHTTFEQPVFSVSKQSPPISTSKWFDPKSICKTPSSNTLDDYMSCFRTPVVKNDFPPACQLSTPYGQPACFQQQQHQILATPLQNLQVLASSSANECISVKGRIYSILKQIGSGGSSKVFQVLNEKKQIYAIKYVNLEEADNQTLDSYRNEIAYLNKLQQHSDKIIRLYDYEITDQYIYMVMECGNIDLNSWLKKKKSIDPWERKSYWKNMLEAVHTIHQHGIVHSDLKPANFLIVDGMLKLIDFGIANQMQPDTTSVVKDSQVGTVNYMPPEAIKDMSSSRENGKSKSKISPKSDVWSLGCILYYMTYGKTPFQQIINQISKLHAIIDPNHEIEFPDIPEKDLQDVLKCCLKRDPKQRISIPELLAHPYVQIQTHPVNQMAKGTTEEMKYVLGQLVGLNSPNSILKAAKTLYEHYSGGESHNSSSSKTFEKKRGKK

| SMILES | solubility kinetic at 24 h, 200 µM [1] [µM] | clearance [2] [mL/min/kg] | IC50 [3] [nM] | IC50 [4] [nM] | IC50 [5] [nM] |
| --- | --- | --- | --- | --- | --- |
| CCc1cccc(CC)c1NC(=O)c1cc(-c2nc(Nc3ccc(N4CCC(O)(CN5CCN(C)CC5)CC4)cc3OC)nc3[nH]ccc23)n(C)n1 | 162 (≈ 115 µg/mL) | 56 | > 5000 | 19 | 2 |
| CCc1cccc(CC)c1NC(=O)c1ccn(-c2nc(Nc3ccc(N4CCC(N5CCN(C)CC5)CC4)cc3OC)nc3[nH]ccc23)c1 | 53 (≈ 35.1 µg/mL) | 68 | 2000 | 6 | 2 |
| CCc1cccc(CC)c1N1CCn2cc(-c3nc(Nc4ccc(N5CCC(O)(CN6CCN(C)CC6)CC5)cc4OC)nc4[nH]ccc34)cc2C1=O | 150 (≈ 108 µg/mL) | 15 | > 5000 | 8 | 2.8 |
| CCc1cccc(CC)c1NC(=O)c1cc(-c2nc(Nc3ccc(N4CCC(N5CCN(C)CC5)CC4)cc3OC)nc3[nH]ccc23)n(C)n1 | 18 (≈ 12.2 µg/mL) | 15 | > 5000 | 17 | 6 |
| CCc1cccc(CC)c1NC(=O)c1cc(-c2nc(Nc3ccc(N4CCN(CC(=O)N(C)C)CC4)cc3OC)nc3[nH]ccc23)n(C)n1 | 3 (≈ 1.99 µg/mL) | 20 |  | 22 | 3 |
| CCc1cccc(CC)c1N1CCn2cc(-c3nc(Nc4ccc(N5CCC(C(=O)N(C)CCN(C)C)CC5)cc4OC)nc4[nH]ccc34)cc2C1=O | 125 (≈ 89.7 µg/mL) | 27 | 3900 | 7 | 5.3 |
| CCc1cccc(CC)c1NC(=O)c1cc(-c2nc(Nc3ccc(N4CCC(C(=O)N5CCN(C)CC5)CC4)cc3OC)nc3[nH]ccc23)n(C)n1 | 2 (≈ 1.41 µg/mL) | 19 | > 5000 | 17 | 4 |
| CCc1cccc(CC)c1NC(=O)c1ccn(-c2nc(Nc3ccc(N4CCC(O)(CN5CCN(C)CC5)CC4)cc3OC)nc3[nH]ccc23)c1 | 37 (≈ 25.6 µg/mL) |  | 1200 | 4 | 1 |
| CCc1cccc(CC)c1NC(=O)c1ccn(-c2nc(Nc3ccc(N4CCC(O)(C(=O)N5CCN(C)CC5)CC4)cc3OC)nc3[nH]ccc23)c1 | 1 (≈ 0.706 µg/mL) |  | 1900 | 10 | 2 |
| CCc1cccc(CC)c1NC(=O)c1cc(-c2nc(Nc3ccc(N4CCC(O)(C(=O)N5CCN(C)CC5)CC4)cc3OC)nc3[nH]ccc23)n(C)n1 | 5 (≈ 3.6 µg/mL) | 31 | > 5000 | 20 | 3 |
| CCc1cccc(CC)c1NC(=O)c1ccn(-c2nc(Nc3ccc(N4CCC(C(=O)N5CCN(C)CC5)CC4)cc3OC)nc3[nH]ccc23)c1 |  | 22 | 3100 | 10 | 2 |
| CCc1cccc(CC)c1NC(=O)c1ccn(-c2nc(Nc3ccc(N4CCN(CC(=O)N(C)C)CC4)cc3OC)nc3[nH]ccc23)c1 | 0.5 (≈ 0.325 µg/mL) |  |  | 10 | 1 |
| CCc1cccc(CC)c1N1CCn2cc(-c3nc(Nc4ccc(N5CCN(CC(=O)N(C)C)CC5)cc4OC)nc4[nH]ccc34)cc2C1=O | 1.4 (≈ 0.946 µg/mL) | 23 |  | 11 | 9 |
| CCc1cccc(CC)c1N1CCn2cc(-c3nc(Nc4ccc(N5CCC(N6CCN(C)CC6)CC5)cc4OC)nc4[nH]ccc34)cc2C1=O | 6 (≈ 4.13 µg/mL) | 52 | > 5000 | 9 | 4 |
| CNC(=O)c1ccc(Nc2nc(OC3CCCC3)c3c(-c4ccc5nc(C)oc5c4)c[nH]c3n2)c(OC)c1 |  |  | 280 |  |  |
| COc1cc(N2CCN(C3COC3)CC2)ccc1Nc1nc(O[C@H]2CCOC(C)(C)C2)c2cc[nH]c2n1 |  |  | > 5000 |  |  |
| CCc1cccc(CC)c1N1CCn2cc(-c3nc(Nc4ccc(N5CCC(C(=O)N6CCN(C)CC6)CC5)cc4OC)nc4[nH]ccc34)cc2C1=O | 0.8 (≈ 0.573 µg/mL) | 1.7 | > 5000 | 5 | 5.6 |
| CCc1cccc(CC)c1N1CCn2cc(-c3nc(Nc4ccc(N5CCC(O)(C(=O)N6CCN(C)CC6)CC5)cc4OC)nc4[nH]ccc34)cc2C1=O | 2 (≈ 1.46 µg/mL) | 20 | > 5000 | 12 | 7.5 |
